In US11076595B2, “1-(n,n-disubstituted carbamoyl) 4-(substituted sulfonyl)triazolin-5-one derivative, 4-(n,n-disubstituted carbamoyl) 1-(substituted sulfonyl)triazolin-5-one derivative, and herbicide containing said derivative as active ingredient” (HOKKO CHEMICAL INDUSTRY CO., LTD., priority 2017, dated 2021):

Tests used:
Assay type in all cases: in vivo
Echinochloa crus-galli [1] = experiment: Test Example 11: herbicidal effect test by soil treatment in paddy field; settings: 120 g/10a active ingredient, 14 days after treatment
How it was run: (§1)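 Dry weight at day 14 relative to untreated controls gives the suppression rate; duplicate pots. Treatment: 120 g a.i./10 are into paddy water at sowing.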

Lindernia pyxidaria [2] = experiment: as above; settings: 120 g/10a active ingredient, 14 days after treatment
How it was run: as §1

Monochoria vaginalis [3] = experiment: as above; settings: 120 g/10a active ingredient, 14 days after treatment
How it was run: as §1

Scirpus juncoides [4] = experiment: as above; settings: 120 g/10a active ingredient, 14 days after treatment
How it was run: as §1

Echinochloa crus-galli [5] = experiment: Test Example 12: herbicidal effect test by treatment during growing period in paddy field; settings: 120 g/10a; treatment seven days after sowing in flooded paddy pot; assessed 14 days after treatment
How it was run: (§2)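 Weed suppression (%) = (1 − treated/untreated mean dry weight) × 100, scored 14 days after treatment with two replicates per plot. Dose 120 g a.i. per 10 are, as diluted emulsifiable concentrate added dropwise to flooded pots (water about 3 cm) 7 days post-sowing, seeds at 0-1 cm.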

Lindernia pyxidaria [6] = experiment: as above; settings: 120 g/10a; treatment seven days after sowing in flooded paddy pot; assessed 14 days after treatment
How it was run: as §2

Monochoria vaginalis [7] = experiment: as above; settings: 120 g/10a; treatment seven days after sowing in flooded paddy pot; assessed 14 days after treatment
How it was run: as §2

Scirpus juncoides [8] = experiment: as above; settings: 120 g/10a; treatment seven days after sowing in flooded paddy pot; assessed 14 days after treatment
How it was run: as §2

| Structure (SMILES) | Weed suppression rate (%) Echinochloa crus-galli (Echinochloa crus-galli [1]) | Weed suppression rate (%) Lindemia pyxidaria (Lindernia pyxidaria [2]) | Weed suppression rate (%) Monochoria vaginalis (Monochoria vaginalis [3]) | Weed suppression rate (%) Scirpus juncoides (Scirpus juncoides [4]) | Weed suppression rate (%) Echinochloa crus-galli (Echinochloa crus-galli [5]) | Weed suppression rate (%) Lindemia pyxidaria (Lindernia pyxidaria [6]) | Weed suppression rate (%) Monochoria vaginalis (Monochoria vaginalis [7]) | Weed suppression rate (%) Scirpus juncoides (Scirpus juncoides [8]) |
| --- | --- | --- | --- | --- | --- | --- | --- | --- |
| Cc1cc(C)c(S(=O)(=O)n2ncn(C(=O)N(c3ccc(F)c(F)c3F)C(C)C)c2=O)c(C)c1 [Compound 11-866] | 100% | 100% | 90% | 90% | 80% | 70% | 90% | 60% |
| Cc1cc(C)c(S(=O)(=O)n2ncn(C(=O)N(c3c(F)cc(F)cc3F)C(C)C)c2=O)c(C)c1 [Compound 11-867] | 100% | 100% | 80% | 80% | 100% | 70% | 80% | 80% |
| Cc1cc(C)c(S(=O)(=O)n2ncn(C(=O)N(c3c(F)c(F)cc(F)c3F)C(C)C)c2=O)c(C)c1 [Compound 11-868] | 100% | 100% | 70% | 100% | 90% | 90% | 80% | 60% |
| Cc1cc(C)c(S(=O)(=O)n2ncn(C(=O)N(c3ccc(Cl)cn3)C(C)C)c2=O)c(C)c1 [Compound 11-889] | 100% | 100% | 80% | 90% | 100% | 70% | 80% | 90% |
| CC(C)N(C(=O)n1cnn(S(=O)(=O)c2cccs2)c1=O)c1ccc(F)cc1 [Compound 11-1014] | 90% | 90% | 80% | 90% | 90% | 80% | 80% | 90% |
| CC(C)N(C(=O)n1cnn(S(=O)(=O)c2cccs2)c1=O)c1c(F)c(F)cc(F)c1F [Compound 11-1027] | 100% | 100% | 90% | 100% | 100% | 80% | 90% | 100% |
| CC(C)N(C(=O)n1cnn(S(=O)(=O)c2cccs2)c1=O)c1ccc(Cl)cc1Br [Compound 11-1034] | 100% | 90% | 70% | 100% | 90% | 70% | 70% | 70% |
| Cc1ccc(N(C(=O)n2cnn(S(=O)(=O)c3cccs3)c2=O)C(C)C)c(F)c1 [Compound 11-1036] | 90% | 90% | 90% | 90% | 90% | 80% | 80% | 90% |
| CC(C)N(C(=O)n1cnn(S(=O)(=O)c2cccs2)c1=O)c1ccc(C(F)(F)F)cc1Cl [Compound 11-1042] | 90% | 80% | 80% | 90% | 90% | 80% | 80% | 90% |
| CC(C)N(C(=O)n1cnn(S(=O)(=O)c2cccs2)c1=O)c1ccc(C#N)cc1Cl [Compound 11-1044] | 90% | 90% | 90% | 90% | 90% | 80% | 80% | 90% |
| CC(C)N(C(=O)n1cnn(S(=O)(=O)N(C)C)c1=O)c1ccccc1F [Compound 11-1054] | 90% | 80% | 80% | 90% | 90% | 80% | 80% | 90% |
| CC(C)N(C(=O)n1cnn(S(=O)(=O)N(C)C)c1=O)c1ccc(Cl)cc1Br [Compound 11-1076] | 90% | 60% | 60% | 60% | 90% | 60% | 30% | 60% |
| Cc1cc(Cl)ccc1N(C(=O)n1cnn(S(=O)(=O)N(C)C)c1=O)C(C)C [Compound 11-1079] | 90% | 80% | 80% | 90% | 90% | 80% | 80% | 90% |
| CC(C)N(C(=O)n1cnn(S(=O)(=O)N(C)C)c1=O)c1ccc(C(F)(F)F)cc1Cl [Compound 11-1084] | 90% | 80% | 80% | 90% | 90% | 80% | 80% | 90% |
| CC(C)N(Cc1ccc(F)cc1F)C(=O)n1cnn(S(=O)(=O)N(C)C)c1=O [Compound 11-1088] | 90% | 80% | 80% | 90% | 90% | 80% | 80% | 90% |
